Measurements from ChEMBL document CHEMBL1201862, “PubChem BioAssay data set” (2004).
Values belong to the compound of their own block, whether it stands above or below them. Calls of active or inactive are those of the source.

Experiments:
[1] = activation of miR-122 Renilla sensor silencing – cell-based, Huh7 psiCHECK-miR122, Renilla luciferase, cherry-picked, dose response (AID 651956); type: functional;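 further: huh7 hepatoma cells stably carrying a psiCHECK-2 miR-122 sensor plasmid; renilla luciferase signal reporting endogenous miR-122 activity after 48 h compound exposure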
INS1 = experiment: INS-1E survival protection against cytokine death – cell-based, luminescence, retest, dose response (AID 449756); type: functional; details: Rattus norvegicus;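 further: cell death triggered by IL-1 beta plus TNF-alpha plus IFN-gamma mixture; protective hits raise ATP signal compared with cytokine alone wells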
[2] = general mammalian cell viability loss – inhibitor set, cherry-pick, set 2, cytotoxicity control for miR-122 modulator project, dose response (AID 720697); type: functional, cell-based
[3] = general mammalian cell viability loss – activator set, cherry-pick, cytotoxicity control for miR-122 modulator project, dose response (AID 720690); type: functional, cell-based;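 further: HEK293T human cells scored for general mammalian cytotoxicity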
[4] = biological target: T1, Microphthalmia-associated transcription factor (Homo sapiens, UniProt O75030); experiment: reducers of TRPM1 reporter luminescence, concentration series – cell-based, SK-MEL-5, cherry-picked, set 3, MITF inhibitor project, dose response (AID 493073); type: functional;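 further: SK-MEL-5 melanoma cells with luciferase driven by the MITF target TRPM1 promoter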
T1 sequence (O75030 whole entry): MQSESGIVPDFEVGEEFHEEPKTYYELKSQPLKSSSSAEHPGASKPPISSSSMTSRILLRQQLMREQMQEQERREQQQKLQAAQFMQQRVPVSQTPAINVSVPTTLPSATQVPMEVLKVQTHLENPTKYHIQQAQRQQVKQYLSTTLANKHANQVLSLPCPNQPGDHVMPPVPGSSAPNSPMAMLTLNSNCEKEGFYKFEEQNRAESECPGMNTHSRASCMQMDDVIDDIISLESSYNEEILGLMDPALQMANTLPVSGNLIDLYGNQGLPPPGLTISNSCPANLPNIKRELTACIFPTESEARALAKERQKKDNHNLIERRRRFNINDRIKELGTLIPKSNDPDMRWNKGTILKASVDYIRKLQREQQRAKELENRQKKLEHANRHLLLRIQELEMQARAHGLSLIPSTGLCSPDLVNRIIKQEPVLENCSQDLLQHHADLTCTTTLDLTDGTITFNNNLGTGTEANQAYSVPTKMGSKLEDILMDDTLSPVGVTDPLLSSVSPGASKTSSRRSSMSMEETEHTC

[5] = OVCAR8 cell viability loss – plate reader, dry powder samples, PAX8 project, dose response (AID 743197); type: functional, cell-based; details: OVCAR-8
[6] = IGROV1 cell killing – plate reader, dry powder samples, PAX8 inhibitor project, dose response (AID 743043); type: functional, cell-based; details: IGROV-1
[7] = OVCAR-3 cell viability loss – plate reader, dry powder samples, PAX8 inhibitor project, dose response (AID 743044); type: functional, cell-based
Paired box protein Pax-8 = Paired box protein Pax-8 (Homo sapiens, UniProt Q06710); experiment: PAX8 transcriptional activity inhibition in RMG-I – RMG-I cells, luciferase, cherry-pick, dose response (AID 687027); type: functional, cell-based;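 further: luciferase reporter driven by Pax8 target thyroperoxidase promoter measured by SteadyGlo luminescence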
Chain of Paired box protein Pax-8 (Q06710 whole entry): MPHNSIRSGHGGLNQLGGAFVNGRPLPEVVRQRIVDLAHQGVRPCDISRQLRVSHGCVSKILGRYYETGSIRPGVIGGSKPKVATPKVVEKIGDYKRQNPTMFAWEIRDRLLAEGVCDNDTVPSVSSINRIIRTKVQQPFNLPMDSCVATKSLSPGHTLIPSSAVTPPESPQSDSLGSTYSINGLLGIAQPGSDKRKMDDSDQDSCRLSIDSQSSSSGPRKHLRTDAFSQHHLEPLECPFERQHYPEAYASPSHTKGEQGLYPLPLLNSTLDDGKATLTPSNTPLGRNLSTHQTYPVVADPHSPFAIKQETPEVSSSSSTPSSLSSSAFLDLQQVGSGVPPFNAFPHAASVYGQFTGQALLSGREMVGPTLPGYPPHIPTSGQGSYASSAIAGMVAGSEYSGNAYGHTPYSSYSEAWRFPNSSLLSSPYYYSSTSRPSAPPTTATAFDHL

Vasopressin V1b receptor = Vasopressin V1b receptor (Homo sapiens, UniProt P47901); experiment: Late-stage results from the probe development effort to identify antagonists of arginine vasopressin receptor 1a (AVPR1a): fluorescence-based cell-based dose response AVPR1b inhibition counterscreen assay.; type: functional
Chain of Vasopressin V1b receptor (P47901 whole entry): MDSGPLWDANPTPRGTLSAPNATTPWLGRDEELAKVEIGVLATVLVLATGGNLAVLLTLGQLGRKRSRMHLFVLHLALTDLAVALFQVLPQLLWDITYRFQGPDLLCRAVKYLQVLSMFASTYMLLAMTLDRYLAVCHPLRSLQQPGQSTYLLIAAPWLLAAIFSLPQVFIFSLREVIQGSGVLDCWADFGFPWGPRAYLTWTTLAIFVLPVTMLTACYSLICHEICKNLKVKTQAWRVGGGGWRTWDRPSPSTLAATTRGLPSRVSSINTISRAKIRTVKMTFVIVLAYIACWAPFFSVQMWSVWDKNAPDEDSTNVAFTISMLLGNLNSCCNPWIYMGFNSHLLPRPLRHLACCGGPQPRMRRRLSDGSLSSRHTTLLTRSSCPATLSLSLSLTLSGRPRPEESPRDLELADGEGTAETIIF

Vasopressin V2 receptor = Vasopressin V2 receptor (Homo sapiens, UniProt P30518); experiment: Late-stage results from the probe development effort to identify antagonists of arginine vasopressin receptor 1a (AVPR1a): fluorescence-based cell-based dose response AVPR2 inhibition counterscreen assay.; type: functional
Chain of Vasopressin V2 receptor (P30518 whole entry): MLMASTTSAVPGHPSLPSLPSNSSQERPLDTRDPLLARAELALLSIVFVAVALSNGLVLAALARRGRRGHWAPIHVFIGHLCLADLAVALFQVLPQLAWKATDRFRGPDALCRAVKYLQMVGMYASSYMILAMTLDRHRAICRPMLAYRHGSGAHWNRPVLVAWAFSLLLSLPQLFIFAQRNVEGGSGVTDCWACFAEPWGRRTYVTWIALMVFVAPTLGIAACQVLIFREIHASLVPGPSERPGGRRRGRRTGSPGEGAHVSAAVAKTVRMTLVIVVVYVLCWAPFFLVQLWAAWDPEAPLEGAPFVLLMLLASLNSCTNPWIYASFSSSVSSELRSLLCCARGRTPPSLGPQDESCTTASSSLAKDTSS

[8] = Late-stage results from the probe development effort to identify antagonists of arginine vasopressin receptor 1a (AVPR1a): fluorescence-based cell-based dose response AVPR1a inhibition assay.; type: functional
[9] = Late-stage results from the probe development effort to identify antagonists of arginine vasopressin receptor 1a (AVPR1a): fluorescence-based cell-based dose response OXTR inhibition counterscreen assay.; type: functional
[10] = cytotoxicity in MITF-independent A375 cells – cell-based, CellTiter-Glo luminescence, dry powder, set 4, counter-screen for MITF inhibitor project, dose response (AID 624364); type: functional; details: A-375;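 further: A375 melanoma cells are MITF independent so this is a counter screen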
[11] = viability loss in MITF-independent A375 cells – cell-based, CellTiter-Glo luminescence, dry powder, set 2, counter-screen for MITF inhibitor project, dose response (AID 624489); type: functional; details: A-375;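 further: actives are compounds lowering A375 viability meaning general cytotoxicity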
[12] = biological target: Potassium channel subfamily K member 3 (Homo sapiens, UniProt O14649); experiment: inhibition of human KCNK3 channel flux – CHO cells, FluxOR thallium flux, SAR follow-up (AID 652212); type: functional
Chain of Potassium channel subfamily K member 3 (O14649 whole entry): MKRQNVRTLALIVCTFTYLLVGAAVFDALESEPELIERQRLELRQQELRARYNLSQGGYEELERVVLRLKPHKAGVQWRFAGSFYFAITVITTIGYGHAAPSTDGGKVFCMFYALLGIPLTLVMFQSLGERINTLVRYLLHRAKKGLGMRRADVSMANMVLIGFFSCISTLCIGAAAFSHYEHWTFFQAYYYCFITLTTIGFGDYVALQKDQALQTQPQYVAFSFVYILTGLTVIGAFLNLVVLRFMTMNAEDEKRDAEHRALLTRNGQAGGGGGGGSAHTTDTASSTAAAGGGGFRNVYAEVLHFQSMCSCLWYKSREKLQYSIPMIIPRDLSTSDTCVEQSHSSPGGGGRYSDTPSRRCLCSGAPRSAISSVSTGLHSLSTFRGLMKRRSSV

[13] = ATP-based viability loss in HepG2 cells – cell-based, CellTiter-Glo luminescence, dry powder, set 3, cytotoxicity control, dose response (AID 720594); type: functional
[14] = dual-tagged ARNT PAS-B bead signal quenchers – biochemical, dry powder, artefact control for ARNT/TACC3 disruptor project, dose response (AID 720564)
[15] = biological target: Protein disulfide-isomerase A6 (Homo sapiens, UniProt Q15084); experiment: Secondary Assay for Selectivity of PDI Inhibitors (against ERp5) Measured in Biochemical System Using Plate Reader - 2137-04_Inhibitor_Dose_DryPowder_Activity_Set3.
Chain of Protein disulfide-isomerase A6 (Q15084 whole entry): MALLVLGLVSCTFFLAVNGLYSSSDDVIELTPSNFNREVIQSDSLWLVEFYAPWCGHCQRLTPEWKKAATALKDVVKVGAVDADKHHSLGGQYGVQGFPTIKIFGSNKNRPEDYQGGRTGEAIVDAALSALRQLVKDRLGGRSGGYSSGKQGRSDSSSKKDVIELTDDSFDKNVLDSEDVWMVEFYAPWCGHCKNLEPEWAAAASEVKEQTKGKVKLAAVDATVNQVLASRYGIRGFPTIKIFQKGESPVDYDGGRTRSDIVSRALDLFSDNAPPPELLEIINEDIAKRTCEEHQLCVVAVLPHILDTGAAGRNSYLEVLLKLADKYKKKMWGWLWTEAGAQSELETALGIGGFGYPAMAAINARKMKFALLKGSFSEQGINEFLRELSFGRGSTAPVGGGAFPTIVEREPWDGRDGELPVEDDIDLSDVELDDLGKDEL

[16] = loss of viability in HeLa cells – cell-based, ATP luminescence, dry powder, cytotoxicity control, dose response (AID 652117); type: functional
[17] = biological target: Protein disulfide-isomerase (Homo sapiens, UniProt P07237); experiment: inhibition of PDI-mediated insulin reduction – biochemical, turbidity, dry powder samples, set 2, confirmation (AID 652146)
Chain of Protein disulfide-isomerase (P07237 whole entry): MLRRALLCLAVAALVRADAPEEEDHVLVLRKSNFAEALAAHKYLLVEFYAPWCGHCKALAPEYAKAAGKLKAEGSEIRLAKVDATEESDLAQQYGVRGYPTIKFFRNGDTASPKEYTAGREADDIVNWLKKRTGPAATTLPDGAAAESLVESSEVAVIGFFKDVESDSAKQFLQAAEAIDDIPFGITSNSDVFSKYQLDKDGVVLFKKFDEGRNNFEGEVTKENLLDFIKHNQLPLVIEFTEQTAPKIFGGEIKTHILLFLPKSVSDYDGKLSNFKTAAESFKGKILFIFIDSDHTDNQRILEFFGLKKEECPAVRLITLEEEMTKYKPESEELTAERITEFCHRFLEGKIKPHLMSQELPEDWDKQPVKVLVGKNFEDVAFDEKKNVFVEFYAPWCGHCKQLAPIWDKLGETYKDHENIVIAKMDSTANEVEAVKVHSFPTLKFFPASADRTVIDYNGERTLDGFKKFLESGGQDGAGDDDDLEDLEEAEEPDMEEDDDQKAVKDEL

[18] = viability loss in HepG2 hepatoma cells – cell-based, cherry-picks, set 5, cytotoxicity control, dose response (AID 1053118); type: functional
[19] = viability loss in HEK293 kidney cells – cell-based, cherry-picks, set 5, cytotoxicity control, dose response (AID 1053117); type: functional

Structure (SMILES): Oc1c(Cl)cc(Cl)cc1/C=N/Nc1ncc(Br)cn1
AC50 [1]: 54.3 µM (active)
AC50 (INS1): 0.388 µM (active)
AC50 [2]: 5.81 µM (active)
AC50 [3]: 22.9 µM (active)
AC50 [4]: 7.84 µM (active)

Structure (SMILES): Cc1ccc(-c2ccc([C@H]3[C@H](CO)N4CCCCN(S(=O)(=O)c5cccc(C)c5)C[C@@H]34)cc2)cc1
AC50 [5]: 46 µM (active)
AC50 [6]: 55.4 µM (active)
AC50 [7]: 31.7 µM (active)
AC50 (Paired box protein Pax-8): 8.11 µM (active)

Structure (SMILES): Cc1cccnc1N1CCN(C(=O)N(CC2CC2)c2ccc(Cl)cc2)CC1
IC50 (Vasopressin V1b receptor): > 50 µM (inactive)
IC50 (Vasopressin V2 receptor): > 50 µM (inactive)
IC50 [8]: 0.0084 µM (active)
IC50 [9]: > 50 µM (inactive)

Structure (SMILES): O=C1C(NS(=O)(=O)c2ccc(Br)cc2)=C(N2CCSCC2)C(=O)c2ccccc21
AC50 [10]: > 70 µM (inactive)
AC50 [11]: > 70 µM (inactive)

IC50 [12]: 1.45 µM (active)
Structure (SMILES): Cc1cccc(S(=O)(=O)Nc2cccc(NC(=O)c3ccccc3)c2)c1

Structure (SMILES): CC1CCN(S(=O)(=O)c2ccc(C(=O)Nc3nnc(-c4cccs4)o3)cc2)CC1
AC50 [13]: > 52 µM (inactive)
AC50 [14]: 116 µM (active)

Structure (SMILES): CC(C)OC(=O)C1(CCOc2ccccc2)CCN(Cc2ccc(O)c(Cl)c2)CC1
AC50 [15]: 30 µM (inactive)
AC50 [16]: 47.9 µM (active)
AC50 [17]: 1 µM (active)

Structure (SMILES): N#Cc1ccc(-c2ccc3c(c2)[C@H]2[C@H](CCN2S(=O)(=O)c2cccc(F)c2)[C@@H](CO)N3)cc1
AC50 [18]: 38.1 µM (active)
AC50 [19]: 32.8 µM (active)
